We go through one compound from ChEMBL document CHEMBL3045788, “Effect of abamectin on root-knot nematodes and tomato yield” (Pest Manag Sci, 2012).

The source made the active and inactive calls. The rule behind the calls is not given here.

Test [1] relates to Meloidogyne incognita. In words: Nematicidal activity against second-stage juvenile Meloidogyne incognita (root-knot nematode) infested tomato field assessed as medium fruit yield at 8 kg/hectare. It is filed as functional.
In test [2] the test system is Meloidogyne incognita. In words: Nematicidal activity against second-stage juvenile Meloidogyne incognita (root-knot nematode) infested tomato field assessed as extra-large fruit yield at 8 kg/hectare. It is filed as functional.
Test [3] has as its system Meloidogyne incognita. As to the kind of experiment: Nematicidal activity against second-stage juvenile Meloidogyne incognita (root-knot nematode) infested tomato field assessed as plant vigour at 8 kg/hectare measured after 30 days. It counts as functional.
Test [4] concerns Meloidogyne incognita. In words: Nematicidal activity against second-stage juvenile Meloidogyne incognita (root-knot nematode) infested tomato plant under greenhouse condition assessed as reduction in root galling index at 8 kg/hectare measured after 30 days. It is filed as functional, organism-based.
Test [5] has as its system Meloidogyne incognita. As to the kind of experiment: Nematicidal activity against second-stage juvenile Meloidogyne incognita (root-knot nematode) infested tomato field assessed as reduction in number of nematodes in soil at 8 kg/hectare measured after 60 days. It counts as functional, organism-based.
For test [6], the system named is Meloidogyne incognita. In words: Nematicidal activity against second-stage juvenile Meloidogyne incognita (root-knot nematode) infested tomato field assessed as reduction in number of nematodes in soil at 8 kg/hectare measured after 40 days. It counts as functional, organism-based.
In test [7] the test system is Meloidogyne incognita. In words: Nematicidal activity against second-stage juvenile Meloidogyne incognita (root-knot nematode) infested tomato plant under greenhouse condition assessed as fresh root weight at 8 kg/hectare measured after 30 days. It counts as functional.
Test [8] concerns Meloidogyne incognita. In words: Nematicidal activity against second-stage juvenile Meloidogyne incognita (root-knot nematode) infested tomato field assessed as reduction in root galling index at 8 kg/hectare measured after 30 days. It counts as functional, organism-based.
The test system of test [9] is Meloidogyne incognita. As to the kind of experiment: Nematicidal activity against second-stage juvenile Meloidogyne incognita (root-knot nematode) infested tomato plant under greenhouse condition assessed as plant vigour at 8 kg/hectare measured after 30 days. It is filed as functional.
For test [10], the system named is Meloidogyne incognita. In words: Nematicidal activity against second-stage juvenile Meloidogyne incognita (root-knot nematode) infested tomato field assessed as marketable yield at 8 kg/hectare. It counts as functional.
Test [11] deals with Meloidogyne incognita. In words: Nematicidal activity against second-stage juvenile Meloidogyne incognita (root-knot nematode) infested tomato plant under greenhouse condition assessed as plant height at 8 kg/hectare measured after 30 days. It is filed as functional.
Test [12] relates to Meloidogyne incognita. As to the kind of experiment: Nematicidal activity against second-stage juvenile Meloidogyne incognita (root-knot nematode) infested tomato field assessed as plant height at 8 kg/hectare measured after 50 days. It is filed as functional.
Test [13] concerns Meloidogyne incognita. In words: Nematicidal activity against second-stage juvenile Meloidogyne incognita (root-knot nematode) infested tomato field assessed as plant height at 8 kg/hectare measured after 30 days. It counts as functional.
In test [14] the test system is Meloidogyne incognita. As to the kind of experiment: Nematicidal activity against second-stage juvenile Meloidogyne incognita (root-knot nematode) infested tomato field assessed as large fruit yield at 8 kg/hectare. It is filed as functional.
For test [15], the system named is Meloidogyne incognita. In words: Nematicidal activity against second-stage juvenile Meloidogyne incognita (root-knot nematode) assessed as mortality after 48 hr. It is filed as functional.
The test system of test [16] is Meloidogyne incognita. In words: Nematicidal activity against second-stage juvenile Meloidogyne incognita (root-knot nematode) infested tomato field assessed as reduction in number of nematodes in soil at 8 kg/hectare measured after 20 days. It counts as functional, organism-based.

In the case of `CCOP(=O)(SC(C)CC)SC(C)CC` (configuration not stated) [CADUSAFOS], the Activity in the test with Meloidogyne incognita [1] is recorded as 41.6%; in the test on Meloidogyne incognita [2], 7.2%; in the test on Meloidogyne incognita [3], 90%; in the test with Meloidogyne incognita [7], 1.13 g; with Meloidogyne incognita [9], 91%; in the test on Meloidogyne incognita [10], 68.7%. Besides, the Activity turned out to be 39.2 cm with Meloidogyne incognita [11], 101.8 cm in the test on Meloidogyne incognita [12], 38.6 cm in the test on Meloidogyne incognita [13] and 19.9% in the test on Meloidogyne incognita [14]. Further, the result in the test with Meloidogyne incognita [4], in the test with Meloidogyne incognita [5], with Meloidogyne incognita [6], in the test with Meloidogyne incognita [8] and in the test on Meloidogyne incognita [16] was Active. Also, the LC50 with Meloidogyne incognita [15] is listed as 13.43 mgAi/L. Moreover, in the test on Meloidogyne incognita [15], the LC90 was determined as 50.34 mgAi/L.
